{"source": "patent US20200131558A1", "about": "“PAPER-BASED ASSAY FOR ANTIMICROBIAL RESISTANCE” (Colorado State University Research Foundation, priority 2017, published 2020)", "key": {"[1]": {"test_system": "Chromobacterium violaceum", "assay": "Antibiotic susceptibility testing (MIC, VITEK 2 microdilution)", "assay_type": "cell-based", "conditions": "C. violaceum isolate from influent of urban sewage water", "procedure": "To determine antibiotic susceptibility of Chromobacterium violaceum and the 32 E. coli isolates, each isolate was subjected to antibiotic susceptibility testing [VITEK 2™ Biomerieux, USA] using microdilution and photometric determination of growth at the Colorado State University Veterinary Diagnostic Laboratory located in Fort Collins, Colo., US. […] The antibiotics that were tested against C. violaceum included amikacin, amoxicillin-clavulanate, ampicillin, cefazolin, cefpodoxime, ceftazidime, cephalothin, imipenem, ticarcillin, and ticarcillin-clavulanate. Antibiotics tested against each E. coli isolate included amoxicillin, ampicillin, cefalexin, cefovecin, cefpodoxime, ceftiofur, piperacillin, ceftazidime, cefotaxime, and imipenem."}, "[2]": {"test_system": "Chromobacterium violaceum", "assay": "Growth on ampicillin-containing agar plate", "assay_type": "cell-based", "conditions": "C. violaceum isolate"}, "β-lactamase": {"test_system": "β-lactamase", "conditions": "on paper, ~22° C., 1 U/mL β-lactamase, Lineweaver-Burk plot", "description": "Nitrocefin [VWR International], a chromogenic cephalosporin, was used for detection of β-lactamase because of the distinct color change from yellow to red in the presence of the enzyme, making it a user-friendly platform. […] Aliquots of 9.68 mM nitrocefin was frozen at −20° C. in amber microcentrifuge tubes [VWR International]. These tubes were used to minimize degradation from UV exposure. Aliquots were taken out and allowed to thaw and warm to room temperature. Nitrocefin was further diluted with pH 7.4 phosphate buffered saline (PBS) [1.37 M NaCl, 0.027 M of KCl, 0.1 M Na2HPO4, and 0.018 M KH2PO4] to a concentration of 0.5 mM for each experiment (except for nitrocefin concentration optimization where 0.5 mM was selected). During pH optimization experiments, nitrocefin was diluted in pH buffers ranging from pH 6 to pH 9. Recombinant β-lactamase was purchased at a concentration of 1,500 U/mg [Abcam] and was initially dissolved in dH2O and aliquoted and frozen. […]\nIn order to quantify the concentration of nitrocefin that was hydrolyzed every minute, a calibration curve was generated by quantifying the red product after the reaction had completed, and plotting green light intensity vs. product concentration. […] The calculated Vmax and Km values were carried out in the Michaelis-Menten equation to obtain a theoretical kinetic curve to compare to data points."}, "[3]": {"test_system": "C. violaceum's β-lactamase", "assay": "Paper-based test on intact bacterial isolates", "assay_type": "cell-based, Chromobacterium violaceum", "conditions": "intact bacteria, 0.5 mM nitrocefin, 2 hr", "procedure": "Bacterial isolates were obtained from grab samples in the field, except for influent. Field samples include influent, effluent, surface water from a river and sewage samples from city sewers. All samples were plated by pipetting 50-100 μL on various clinical agars [CHROMagar™ Orientation, CHROMagar™ ESBL, and CHROMagar™ KPC]. Bacterial isolates were purified by selecting a single colony with an inoculating loop and spreading the colony on the same kind of agar the colony was selected from, or was spread onto a MacConkey agar plate [Difco]. To remove potential inhibitors before any testing, they were further subcultured onto non selective agar [Tryptic Soy Agar, Thermo Scientific™ Remel™] and then grown in a nutrient broth [Tryptic Soy Broth, Thermo Scientific™ Remel™, Soybean Casein Digest] at 37° C. and 2% CO2. After replenishing the nutrient broth, all bacteria isolates were grown using a shaker for 12-18 hr depending on bacteria growth rate. They were also re-plated on ESBL plates to confirm resistance mechanisms. The isolates were given to the tester blind for accurate, unbiased results. Bacteria were not lysed before reacting 20 μL of bacteria solution with 20 μL of 0.5 mM nitrocefin. Images were obtained after 2 hr of reaction."}, "[4]": {"assay_type": "physicochemical"}}}
{"smiles": "CC1(C)S[C@@H]2[C@H](NC(=O)[C@H](N)c3ccc(O)cc3)C(=O)N2[C@H]1C(=O)O", "note": "[amoxicillin]", "values": [{"measurement": "resistance/susceptibility of isolate (MIC interpreted per CLSI)", "setting": "[1]", "value": "susceptible"}]}
{"smiles": "CC1(C)S[C@@H]2[C@H](NC(=O)[C@H](N)c3ccccc3)C(=O)N2[C@H]1C(=O)O", "note": "[ampicillin]", "values": [{"measurement": "growth on ampicillin-containing agar plate", "setting": "[2]", "value": "did not grow"}]}
{"smiles": "Cc1nnc(SCC2=C(C(=O)O)N3C(=O)[C@@H](NC(=O)Cn4cnnn4)[C@H]3SC2)s1", "note": "[cefazolin]", "values": [{"measurement": "resistance/susceptibility of isolate (MIC interpreted per CLSI)", "setting": "[1]", "value": "resistant"}]}
{"smiles": "CC(=O)OCC1=C(C(=O)O)N2C(=O)[C@@H](NC(=O)Cc3cccs3)[C@H]2SC1", "note": "[cephalothin]", "values": [{"measurement": "resistance/susceptibility of isolate (MIC interpreted per CLSI)", "setting": "[1]", "value": "resistant"}]}
{"smiles": "O=C(Cc1cccs1)N[C@@H]1C(=O)N2C(C(=O)O)=C(/C=C/c3ccc([N+](=O)[O-])cc3[N+](=O)[O-])CS[C@H]12", "note": "[nitrocefin]", "values": [{"measurement": "Km", "setting": "β-lactamase", "value": "293 ± 13", "unit": "µM"}, {"measurement": "Vmax", "setting": "β-lactamase", "value": "0.0285 ± 0.0012", "unit": "mM/min"}, {"measurement": "reaction with the isolate's β-lactamase (color change)", "setting": "[3]", "value": "did not react"}, {"measurement": "solubility in water", "setting": "[4]", "value": "insoluble in water"}]}
{"smiles": "CC1(C)S[C@@H]2[C@H](NC(=O)[C@H](C(=O)O)c3ccsc3)C(=O)N2[C@H]1C(=O)O", "note": "[ticarcillin]", "values": [{"measurement": "resistance/susceptibility of isolate (MIC interpreted per CLSI)", "setting": "[1]", "value": "susceptible"}]}
